Tested on: UUO-induced renal fibrosis
Test: UUO-induced renal fibrosis, Masson Trichrome staining of kidney sections with image analysis
Format: in vivo, Sprague Dawley rats
Settings: rat UUO kidney, day 14; hSAP 2 mg/kg iv q2d days 0-12; enalapril 200 mg/L in drinking water; HSA control approximately 22%, uninjured kidney approximately 5%
Protocol: Unilateral Ureter Obstruction (UUO) in the rat is a suitable model of renal fibrosis'. Renal fibrosis was induced in Sprague Dawley rats weighing 200-250 grams. Rats were anesthetized with ketamine (100 mg/kg) and xylazine (5 mg/kg). All surgical procedures were conducted using aseptic techniques.
The left kidney, renal artery and vein were exposed and the ureter occluded using suture. The surgical site was then sutured closed.
Human serum albumin in PBS (group 1) or hSAP in PBS (groups 2-5) was given to animals by intravenous (iv) injection every other day from day 0 to day 12 as detailed in Table 4. Enalapril was be added to the drinking water of animals in groups 2, 5 and 6, beginning on the day of study and continuing until sacrifice (day 14).
On day 14, animals were sacrificed and both the left occluded and right contralateral control kidneys excised.
To determine the extent of fibrosis induced by 14 days of UUO, kidney sections from all groups of animals were stained with Masson Trichrome and the extent of Trichrome positivity determined using image analysis (see FIG. 1). […] However, there was a significant inhibition in Trichrome staining in the animals treated with the combination of enalapril and hSAP (p<0.05; approximately 10%). […]

Row | Molecule | extent of Trichrome staining (collagen deposition in the kidney)
1 | hSAP: human serum amyloid P, a pentraxin family protein that suppresses fibrocyte differentiation | approximately 25%
2 | CCOC(=O)[C@H](CCc1ccccc1)N[C@@H](C)C(=O)N1CCC[C@H]1C(=O)O [enalapril] | approximately 15%

Reference: patent publication US8247370B2, “Conjoint therapy for treating fibrotic diseases” (Promedior, Inc., priority 2006, dated 2012)
